Data as given in patent US11517555B2, “Solid soluble ferric pyrophosphate formulations, kits, and methods using the same” (ROCKWELL MEDICAL, INC., priority 2015, dated 2022).
“And” between values parts separate entries of the source, which are not always exact repeats. Identical values can stand only once.

Legend:
[1] = aqueous solution
[2] = remark: listed apart in the source
Text: The angle of repose is related to resistance to movement between particles (interparticulate friction) and is the constant, three-dimensional angle relative to the horizontal base assumed by a cone-shaped pile of powder. In a typical assay, a symmetrical cone-shaped pile of powder is built by passing a solid particulate formulation through a funnel onto a vibration-free fixed base. The height of the funnel is maintained approximately 2 cm to 4 cm above the pile to minimize the effect of falling particles on the top of the pile. The angle of repose can then be determined by measuring the height and radius of the cone and calculating the angle of repose from the following equation: angle of repose=tan^−1(height/radius).

[3] = target: apotransferrin and monoferric transferrin (Homo sapiens, UniProt P02787)
[4] = healthy volunteers, 2.5-10 mg iv over 4 hours, 15 and 20 mg iv over 12 hours
[5] = Cilas 1180LD laser diffraction, liquid dispersion in mineral oil, replicates 1-3, citrate

Chain of apotransferrin and monoferric transferrin (P02787 20-698): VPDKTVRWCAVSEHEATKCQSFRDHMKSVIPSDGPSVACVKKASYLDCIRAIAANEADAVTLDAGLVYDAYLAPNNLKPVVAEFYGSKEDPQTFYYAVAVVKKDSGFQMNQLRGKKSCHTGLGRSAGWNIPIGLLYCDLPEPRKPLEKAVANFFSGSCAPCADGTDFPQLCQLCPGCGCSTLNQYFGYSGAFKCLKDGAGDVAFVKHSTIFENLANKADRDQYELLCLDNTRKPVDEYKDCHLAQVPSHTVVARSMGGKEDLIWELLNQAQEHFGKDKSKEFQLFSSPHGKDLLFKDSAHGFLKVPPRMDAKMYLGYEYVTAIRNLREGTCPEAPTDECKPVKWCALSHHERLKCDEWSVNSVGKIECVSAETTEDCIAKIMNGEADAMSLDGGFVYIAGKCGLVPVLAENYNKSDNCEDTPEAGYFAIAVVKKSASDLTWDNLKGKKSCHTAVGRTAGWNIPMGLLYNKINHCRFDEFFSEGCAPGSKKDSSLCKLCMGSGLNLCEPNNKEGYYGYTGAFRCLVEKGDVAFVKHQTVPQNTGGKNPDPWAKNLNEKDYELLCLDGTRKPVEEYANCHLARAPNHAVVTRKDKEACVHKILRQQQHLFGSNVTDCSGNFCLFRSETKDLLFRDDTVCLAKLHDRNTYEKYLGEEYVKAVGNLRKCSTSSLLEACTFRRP

O=C([O-])CC(O)(CC(=O)[O-])C(=O)[O-].O=P(O)(O)OP(=O)(O)O.[Fe+3] [SFP, Ferric pyrophosphate citrate]
D10 [5]: 3.57 μm and 3.63 μm and 3.68 μm | D50 [5]: 12.73 μm and 12.66 μm and 12.58 μm | D90 [5]: 41.08 μm and 40.18 μm and 39.23 μm | primary particle size (light microscopy, dry powder and mineral oil dispersions): > 5 μm | Fe(III)-ligand binding [1]: Covalent and stable in aqueous | Angle of Response, Average ([2]; average of 3 replicate measurements): 41.5 ° | Angle of Response ([2]; single replicate measurements 1-3, citrate): 42.3 ° and 41.4 ° and 40.9 ° | Pharmacologic action [3]: Binds directly to apotransferrin and | AUC of baseline-corrected serum iron [4]: increased in a dose proportional manner | Cmax of baseline-corrected serum iron [4]: increased in a dose proportional manner
